ChEMBL document CHEMBL6121019, “Design, synthesis and biological evaluation of bisnoralcohol derivatives as novel IRF4 inhibitors for the treatment of multiple myeloma” (Eur J Med Chem, 2025)
Active and inactive are the calls of the source. The calls are words filed in the database; no cut-off is given here.

How the values were obtained:
[1] = target: T1, Interferon regulatory factor 3 (Homo sapiens) (UniProt Q14653); assay: Induction of thermal stabilization of IRF3 in human NCI-H929 cells at 42 to 42.3 degree C by […] method; assay type: cell-based
T1 sequence (whole entry): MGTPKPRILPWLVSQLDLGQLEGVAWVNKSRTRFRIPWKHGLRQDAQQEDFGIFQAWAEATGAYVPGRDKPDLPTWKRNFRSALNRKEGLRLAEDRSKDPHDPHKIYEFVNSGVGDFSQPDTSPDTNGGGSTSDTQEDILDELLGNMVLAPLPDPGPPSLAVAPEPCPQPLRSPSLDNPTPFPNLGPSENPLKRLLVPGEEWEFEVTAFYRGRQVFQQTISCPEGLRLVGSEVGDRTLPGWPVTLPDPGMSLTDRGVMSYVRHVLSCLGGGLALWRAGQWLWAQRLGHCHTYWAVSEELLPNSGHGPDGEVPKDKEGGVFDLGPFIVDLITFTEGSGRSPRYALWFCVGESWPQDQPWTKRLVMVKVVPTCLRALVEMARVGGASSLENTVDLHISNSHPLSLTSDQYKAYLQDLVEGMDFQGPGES

[2] = test system: NCI-H929; assay: Effect on IRF4 expression in human NCI-H929 cells with siRNA mediated IRF4 knockdown by Western blot analysis; assay type: functional, cell-based
[3] = test system: MM.1R; assay: Antiproliferative activity against human MM1.R cells with siRNA mediated IRF4 knockdown measured upto 5 days by MTS assay; assay type: functional, cell-based; conditions: time <= 5.0 day
[4] = test system: NCI-H929; assay: Antiproliferative activity against human NCI-H929 cells with siRNA mediated IRF4 knockdown measured upto 5 days by MTS assay; assay type: functional, cell-based; conditions: time <= 5.0 day
[5] = test system: HAF; assay: Effect on IRF4 expression in human HAF cells by Western blot analysis; assay type: functional, cell-based
[6] = test system: HaCaT; assay: Effect on IRF4 expression in human HaCaT cells by Western blot analysis; assay type: functional, cell-based
[7] = Potency index, ratio of IC50 for lenalidomide to test compound IC50 for antiproliferative activity against human RPMI-8226 cells assessed as inhibition of cell growth measured after 72 hrs by MTS assay; assay type: functional
[8] = test system: MM.1R; assay: Downregulation of CMYC expression in human MM1.R cells measured after 24 hrs by qRT-PCR analysis; assay type: functional, cell-based; conditions: dose 0.125-1 µM
[9] = test system: MM.1R; assay: Inhibition of AKT phosphorylation level in human MM1.R cells at 0.1 to 1 uM by Western blot analysis; assay type: functional, cell-based; conditions: dose 0.1-1 µM
[10] = test system: MM.1R; assay: Inhibition of ERK phosphorylation level in human MM1.R cells at 0.1 to 1 uM by Western blot analysis; assay type: functional, cell-based; conditions: dose 0.1-1 µM
[11] = test system: NCI-H929; assay: Inhibition of AKT phosphorylation level in human NCI-H929 cells at 0.1 to 1 uM by Western blot analysis; assay type: functional, cell-based; conditions: dose 0.1-1 µM
[12] = test system: NCI-H929; assay: Induction of cell cycle arrest in human NCI-H929 cells assessed as accumulation of cells at G1 phase measured after 24 hrs by flow cytometry analysis; assay type: functional, cell-based; conditions: dose 0.125-0.5 µM
[13] = test system: NCI-H929; assay: Induction of cell cycle arrest in human NCI-H929 cells assessed as accumulation of cells at G1 phase at 0.125 uM measured after 24 hrs by flow cytometry analysis (reference value: 54.12%); assay type: functional
[14] = test system: NCI-H929; assay: Induction of cell cycle arrest in human NCI-H929 cells assessed as accumulation of cells at G1 phase at 0.25 uM measured after 24 hrs by flow cytometry analysis (reference value: 54.12%); assay type: functional
[15] = test system: NCI-H929; assay: Induction of cell cycle arrest in human NCI-H929 cells assessed as accumulation of cells at S phase at 0.25 uM measured after 24 hrs by flow cytometry analysis (reference value: 32.14%); assay type: functional
[16] = test system: NCI-H929; assay: Induction of cell cycle arrest in human NCI-H929 cells assessed as accumulation of cells at G2 phase at 0.125 uM measured after 24 hrs by flow cytometry analysis (reference value: 13.37%); assay type: functional
[17] = test system: NCI-H929; assay: Induction of cell cycle arrest in human NCI-H929 cells assessed as accumulation of cells at G2 phase at 0.5 uM measured after 24 hrs by flow cytometry analysis (reference value: 13.37%); assay type: functional
[18] = test system: NCI-H929; assay: Induction of cell cycle arrest in human NCI-H929 cells assessed as inhibition of CDC2 protein expression at 0.1 to 1 uM; assay type: functional, cell-based; conditions: dose 0.1-1 µM
[19] = test system: NCI-H929; assay: Induction of cell cycle arrest in human NCI-H929 cells assessed as inhibition of cyclin D1 protein expression at 0.1 to 1 uM; assay type: functional, cell-based; conditions: dose 0.1-1 µM
[20] = test system: MM.1R; assay: Induction of cell cycle arrest in human MM1.R cells assessed as inhibition of CDC2 protein expression at 0.1 to 1 uM; assay type: functional, cell-based; conditions: dose 0.1-1 µM
[21] = test system: MM.1R; assay: Induction of cell cycle arrest in human MM1.R cells assessed as inhibition of cyclin B1 protein expression at 0.1 to 1 uM; assay type: functional, cell-based; conditions: dose 0.1-1 µM
[22] = Toxicity in Balb/C nude mouse assessed as changes in main organ at 12.5 to 25 mg/kg administered once daily and measured every three days for 34 days by H and E staining based analysis; assay type: organism-based; conditions: in vivo, 816 h, dose 12.5-25 mg/kg, time 34 day
[23] = Toxicity in Balb/C nude mouse assessed as side effects at 12.5 to 25 mg/kg administered once daily and measured every three days for 34 days by H and E staining based analysis; assay type: organism-based; conditions: in vivo, 816 h, dose 12.5-25 mg/kg, time 34 day
[24] = test system: NCI-H929; assay: Antitumor activity against human NCI-H929 cells xenografted in Balb/C nude mouse model assessed as inhibition of Akt phosphorylation level at 25 mg/kg by Western blot analysis; assay type: functional, organism-based
[25] = target: T2, Interferon regulatory factor 4 (Homo sapiens, UniProt Q15306); assay: Inhibition of IRF4 (unknown origin) incubated for 1 hr by fluorescence polarization assay
T2 sequence (Q15306 whole entry): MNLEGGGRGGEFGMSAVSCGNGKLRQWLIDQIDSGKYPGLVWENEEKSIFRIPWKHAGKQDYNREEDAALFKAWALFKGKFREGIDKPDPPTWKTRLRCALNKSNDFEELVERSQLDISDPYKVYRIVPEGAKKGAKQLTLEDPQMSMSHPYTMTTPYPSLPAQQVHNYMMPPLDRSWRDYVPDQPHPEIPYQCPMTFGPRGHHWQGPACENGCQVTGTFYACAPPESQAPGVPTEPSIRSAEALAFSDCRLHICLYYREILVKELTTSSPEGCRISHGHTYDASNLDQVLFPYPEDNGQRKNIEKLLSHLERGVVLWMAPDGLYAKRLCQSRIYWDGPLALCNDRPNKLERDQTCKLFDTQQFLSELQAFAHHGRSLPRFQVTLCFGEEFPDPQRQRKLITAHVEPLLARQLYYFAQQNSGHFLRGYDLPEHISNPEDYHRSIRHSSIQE

[26] = Antiproliferative activity against human HAF cells assessed as inhibition of cell viability measured after 72 hrs by MTS assay; assay type: toxicity, cell-based
[27] = Selectivity ratio IC50 for human RPMI-8226 cells to IC50 for human MM1.R cells; assay type: toxicity
[28] = Cmax in ICR mouse plasma at 1.0 mg/kg, iv; assay type: ADME, organism-based
[29] = AUC (0 to t) in ICR mouse plasma at 1.0 mg/kg, iv; assay type: ADME, organism-based
[30] = Tmax in ICR mouse plasma at 10 mg/kg, po; assay type: ADME, organism-based
[31] = Terminal elimination half life in ICR mouse plasma at 10 mg/kg, po; assay type: ADME, organism-based; conditions: read-out: beta t1/2 (converted)

COc1ccc(NC(=O)[C@@H](C)[C@H]2CC[C@H]3[C@@H]4C(=O)C=C5C(C)(C)C(=O)C(C#N)=C[C@]5(C)[C@H]4CC[C@]23C)cc1
Activity [1]: inactive
Activity [2]: Active
Activity [3]: Active
Activity [4]: Active
Activity [5]: inactive
Activity [6]: inactive
Ratio IC50 [7]: 30
Activity [8]: Active
inhibition [9]: Active
inhibition [10]: Active
inhibition [11]: Active
Activity [12]: Dose-dependent-effect
Activity [13]: 57.62%
Activity [14]: 60.31%
Activity [15]: 25.49%
Activity [16]: 11.45%
Activity [17]: 10.56%
Activity [18]: Active
Activity [19]: Active
Activity [20]: Active
Activity [21]: Active
Activity [22]: Non-toxic
Activity [23]: Non-toxic
Activity [24]: Active
IC50 [25]: 2.63 µM
IC50 at 72 h [26]: > 100 µM
Ratio IC50 [27]: 10.8
Cmax [28]: 174 ng/mL
AUC(0-t) [29]: 81 ng·h/mL
Tmax [30]: 0.53 h
half-life [31]: 6.71 h
